# From PubChem BioAssay (NCI)
#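 The compound was tested at five concentrations on cells cultured in 96-well plates, with a 48-hour exposure period. GI50: concentration for 50% inhibition of growth. At the TGI there is no net growth.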
# Columns and labels:
# Assay in all cases: DTP human tumour cell line panel, 48 h
# HT29 colon = system: HT29 colon
# MDA-MB-231 breast = system: MDA-MB-231 breast
# CAKI-1 renal = system: CAKI-1 renal
# A498 renal = system: A498 renal
# DU-145 prostate = system: DU-145 prostate
# UO-31 renal = system: UO-31 renal
# NCI-H23 lung = system: NCI-H23 lung
# 786-0 renal = system: 786-0 renal
# SNB-19 CNS = system: SNB-19 CNS
# RPMI-8226 leukemia = system: RPMI-8226 leukemia
# T-47D breast = system: T-47D breast
# TK-10 renal = system: TK-10 renal
# HCT-116 colon = system: HCT-116 colon
# NCI-H226 lung = system: NCI-H226 lung
# OVCAR-8 ovarian = system: OVCAR-8 ovarian
# OVCAR-5 ovarian = system: OVCAR-5 ovarian
# SR leukemia = system: SR leukemia
# SN12C renal = system: SN12C renal
# MOLT-4 leukemia = system: MOLT-4 leukemia
# NCI/ADR-RES ovarian = system: NCI/ADR-RES ovarian
# U251 CNS = system: U251 CNS
# EKVX NSCLC = system: EKVX NSCLC
# KM12 colon = system: KM12 colon
# CCRF-CEM leukemia = system: CCRF-CEM leukemia
# MDA-MB-435 = system: MDA-MB-435
# NCI-H460 lung = system: NCI-H460 lung
# SF-268 CNS = system: SF-268 CNS
# M14 melanoma = system: M14 melanoma
# UACC-62 melanoma = system: UACC-62 melanoma
# PC-3 prostate = system: PC-3 prostate
# A549 NSCLC = system: A549 NSCLC
# ACHN renal = system: ACHN renal
# SW-620 colon = system: SW-620 colon
# SK-MEL-28 melanoma = system: SK-MEL-28 melanoma
# SF-295 CNS = system: SF-295 CNS
# SK-OV-3 ovarian = system: SK-OV-3 ovarian
# OVCAR-4 ovarian = system: OVCAR-4 ovarian
# K-562 leukemia = system: K-562 leukemia
# COLO 205 colon = system: COLO 205 colon
# SK-MEL-5 melanoma = system: SK-MEL-5 melanoma
# MALME-3M melanoma = system: MALME-3M melanoma
# OVCAR-3 ovarian = system: OVCAR-3 ovarian
# NCI-H522 lung = system: NCI-H522 lung
# HS 578T breast = system: HS 578T breast
# UACC-257 melanoma = system: UACC-257 melanoma
# HOP-92 NSCLC = system: HOP-92 NSCLC
# HOP-62 NSCLC = system: HOP-62 NSCLC
# RXF 393 renal = system: RXF 393 renal
# SF-539 CNS = system: SF-539 CNS
# BT-549 breast = system: BT-549 breast
# MCF7 breast = system: MCF7 breast
# LOX IMVI melanoma = system: LOX IMVI melanoma
# SK-MEL-2 melanoma = system: SK-MEL-2 melanoma
# IGROV1 ovarian = system: IGROV1 ovarian
# HCT-15 colon = system: HCT-15 colon
smiles,measurement,setting,value
N=C(N)/N=C(\N)c1c(-c2cc(O)ccc2O)nc2sccn12,GI50,HT29 colon,36.5 µM
same,TGI,HT29 colon,> 100 µM
same,GI50,MDA-MB-231 breast,18.9 µM
same,TGI,MDA-MB-231 breast,39.8 µM
same,GI50,CAKI-1 renal,20.1 µM
same,TGI,CAKI-1 renal,39.3 µM
same,GI50,A498 renal,> 100 µM
same,TGI,A498 renal,> 100 µM
same,GI50,DU-145 prostate,16.8 µM
same,TGI,DU-145 prostate,30.5 µM
same,GI50,UO-31 renal,22.3 µM
same,TGI,UO-31 renal,47.9 µM
same,GI50,NCI-H23 lung,19.5 µM
same,TGI,NCI-H23 lung,34.1 µM
same,GI50,786-0 renal,19.9 µM
same,TGI,786-0 renal,38.9 µM
same,GI50,SNB-19 CNS,> 100 µM
same,TGI,SNB-19 CNS,> 100 µM
same,GI50,RPMI-8226 leukemia,21.9 µM
same,TGI,RPMI-8226 leukemia,49.5 µM
same,GI50,T-47D breast,20.7 µM
same,TGI,T-47D breast,45.1 µM
same,GI50,TK-10 renal,17.9 µM
same,TGI,TK-10 renal,36.4 µM
same,GI50,HCT-116 colon,17.3 µM
same,TGI,HCT-116 colon,35.9 µM
same,GI50,NCI-H226 lung,> 100 µM
same,TGI,NCI-H226 lung,> 100 µM
same,GI50,OVCAR-8 ovarian,59.9 µM
same,TGI,OVCAR-8 ovarian,> 100 µM
same,GI50,OVCAR-5 ovarian,18.3 µM
same,TGI,OVCAR-5 ovarian,33.1 µM
same,GI50,SR leukemia,22.7 µM
same,TGI,SR leukemia,87.2 µM
same,GI50,SN12C renal,19.4 µM
same,TGI,SN12C renal,39.7 µM
same,GI50,MOLT-4 leukemia,29.4 µM
same,TGI,MOLT-4 leukemia,> 100 µM
same,GI50,NCI/ADR-RES ovarian,82.3 µM
same,TGI,NCI/ADR-RES ovarian,> 100 µM
same,GI50,U251 CNS,46.1 µM
same,TGI,U251 CNS,> 100 µM
same,GI50,EKVX NSCLC,98.6 µM
same,TGI,EKVX NSCLC,> 100 µM
same,GI50,KM12 colon,34.8 µM
same,TGI,KM12 colon,> 100 µM
same,GI50,CCRF-CEM leukemia,10.3 µM
same,TGI,CCRF-CEM leukemia,33.7 µM
same,GI50,MDA-MB-435,18 µM
same,TGI,MDA-MB-435,35.3 µM
same,GI50,NCI-H460 lung,> 100 µM
same,TGI,NCI-H460 lung,> 100 µM
same,GI50,SF-268 CNS,> 100 µM
same,TGI,SF-268 CNS,> 100 µM
same,GI50,M14 melanoma,19.8 µM
same,TGI,M14 melanoma,37.9 µM
same,GI50,UACC-62 melanoma,44.6 µM
same,TGI,UACC-62 melanoma,> 100 µM
same,GI50,PC-3 prostate,26.7 µM
same,TGI,PC-3 prostate,> 100 µM
same,GI50,A549 NSCLC,> 100 µM
same,TGI,A549 NSCLC,> 100 µM
same,GI50,ACHN renal,20.8 µM
same,TGI,ACHN renal,40.5 µM
same,GI50,SW-620 colon,19.9 µM
same,TGI,SW-620 colon,39.4 µM
same,GI50,SK-MEL-28 melanoma,21.4 µM
same,TGI,SK-MEL-28 melanoma,46 µM
same,GI50,SF-295 CNS,> 100 µM
same,TGI,SF-295 CNS,> 100 µM
same,GI50,SK-OV-3 ovarian,> 100 µM
same,TGI,SK-OV-3 ovarian,> 100 µM
same,GI50,OVCAR-4 ovarian,33.9 µM
same,TGI,OVCAR-4 ovarian,> 100 µM
same,GI50,K-562 leukemia,33 µM
same,TGI,K-562 leukemia,> 100 µM
same,GI50,COLO 205 colon,38.7 µM
same,TGI,COLO 205 colon,> 100 µM
same,GI50,SK-MEL-5 melanoma,> 100 µM
same,TGI,SK-MEL-5 melanoma,> 100 µM
same,GI50,MALME-3M melanoma,15.9 µM
same,TGI,MALME-3M melanoma,35.4 µM
same,GI50,OVCAR-3 ovarian,21.8 µM
same,TGI,OVCAR-3 ovarian,54.8 µM
same,GI50,NCI-H522 lung,32.4 µM
same,TGI,NCI-H522 lung,> 100 µM
same,GI50,HS 578T breast,> 100 µM
same,TGI,HS 578T breast,> 100 µM
same,GI50,UACC-257 melanoma,25.1 µM
same,TGI,UACC-257 melanoma,62.7 µM
same,GI50,HOP-92 NSCLC,18.3 µM
same,TGI,HOP-92 NSCLC,55.3 µM
same,GI50,HOP-62 NSCLC,29.4 µM
same,TGI,HOP-62 NSCLC,84.6 µM
same,GI50,RXF 393 renal,20.6 µM
same,TGI,RXF 393 renal,41.6 µM
same,GI50,SF-539 CNS,20.4 µM
same,TGI,SF-539 CNS,38.4 µM
same,GI50,BT-549 breast,30.4 µM
same,TGI,BT-549 breast,84.3 µM
same,GI50,MCF7 breast,37.8 µM
same,TGI,MCF7 breast,> 100 µM
same,GI50,LOX IMVI melanoma,22.8 µM
same,TGI,LOX IMVI melanoma,44.5 µM
same,GI50,SK-MEL-2 melanoma,44.9 µM
same,TGI,SK-MEL-2 melanoma,> 100 µM
same,GI50,IGROV1 ovarian,22.5 µM
same,TGI,IGROV1 ovarian,44.1 µM
same,GI50,HCT-15 colon,26 µM
same,TGI,HCT-15 colon,74.8 µM
